Read-outs that look alike come from different tables or passages of the source.
Legend:
[1] = system: oxymorphonazine (OMZ)-induced analgesia; experiment: antagonism of oxymorphonazine (OMZ)-induced analgesia (tail flick) in rats; format: in vivo, rat
Procedure: The compound of Example XII was evaluated for its potency and duration in the antagonism of oxymorphonazine (OMZ)-induced analgesia. […] Data represent the mean SEM of 4-5 animals per group.
(Cowan A. Trendsin Pharmacology Science, 7:69-72, 1986) With this test the intracerebroventricular administration of bombesin produces a characteristic scratching response.

[2] = conditioned taste aversion in rats; format: in vivo, rat; details: for conditioned taste aversion (milk intake, preference ratio): I.P., day 10
Procedure: The ability of a compound to inhibit feeding may not be related to its anorectic properties, but rather to the ability of that compound to produce a conditioned taste aversion. This possibility was tested in the following experiment. Animals were adapted to water deprivation by restricting their access to water to a single 30 min presentation occurring at the same time every day. Baseline water intakes were determined for 7 days until intakes had stabilized, and animals were assigned to treatment groups based on their intakes on the final baseline day. On the following day (day 8), all rats received a bottle of condensed milk (diluted 2:1 water:milk) in place of the water, and intakes were recorded for 30 min. Fifteen minutes after the milk was removed, rats were administered an I.P. injection of vehicles, LiCl (299.6 μmol/kg) or the compound of Example XII (1.15, 2.31, 11.55 and 23.09 μmol/kg). The compound of Example XII was dissolved in 0.3% acetic acid in a volume of 4 ml/kg. LiCl was dissolved in saline, and serves as a positive control, since it is a compound that reliably produces a strong conditioned taste aversion. This procedure was repeated on day 9. On day 10, all rats were given a two-bottle choice of water or the milk:water solution, and intakes were recorded for 30 min. Data for each experiment were analyzed by one-way ANOVA, and post-hoc comparisons were performed using Dunnett's test.
The effects of the compound of Example XII in producing a conditioned taste aversion are illustrated in FIGS. 28 and 29. In FIGS. 28 and 29 the data represent the mean ±SEM for each group. **=p<0.01 (Dunnett's test). Abbreviations: SAL, saline; AA, 0.3% acetic acid in distilled water; LiCl, lithium chloride. Doses of the compound of Example XII for each group are expressed in μmole/kg. The number of animals per group: SAL, 4: AA, LiCl and each dose of Example XII, 5. FIG. 28: Total milk intake in ml on day 10. FIG. 29: Preference ratio on day 10.

[3] = food intake in 24 hr food-deprived rats; format: in vivo, rat; details: for Food Intake in Grams: Table 3, 24 hr; for Cumulative Food Intake in Grams: Table 4
Procedure: Rats were given water and powdered food ad lib for 8 days until food intake had stabilized, and body weight and food and water intakes were recorded at the same time every day. Animals were assigned to treatment groups matched on the basis of their 24 hr food consumption on the last baseline day, and rats were food deprived for 24 hr immediately before injection of the test compound. […] The compound of Example XII was injected S.C. at doses of 1.15, 2.31, 11.55 and 23.09 μmol/kg, in a volume of 4 ml/kg of 0.3% acetic acid. Controls were injected with the vehicle solutions in the appropriate volumes. Food and water intakes were measured at 1, 3 and 24 hr after treatment. Data for each measure and time point were analyzed by one-way analysis of variance (ANOVA), and post-hoc comparisons were performed using Dunnett's test in order to compare the control mean to each of the treatment means.
Rats were given water and powdered food for 8 days, and following this,
Testing was performed as described above, and baseline measurements were recorded for 7 days. […] The compound of Example XII was injected at doses of 11.55, 23.09, 46.19 and 92.38 μmol/kg by suspension in a solution of 1:1 DMSO:water in a volume of 3 ml/kg. Food and water intakes were recorded at 1, 2, 4 and 6 h following treatment.
See Table 3 for experimental details, except that baseline measures were […]

[4] = target: T1, kappa-type opioid receptor (Cavia porcellus, UniProt P41144); experiment: inhibition of specific [^3 H] EKC binding to guinea pig cerebellum membrane
T1 construct: using guiniea pig cerebellum membrane; from tissue; host or cells: guinea pig cerebellum membranes
T1 sequence (P41144 whole entry): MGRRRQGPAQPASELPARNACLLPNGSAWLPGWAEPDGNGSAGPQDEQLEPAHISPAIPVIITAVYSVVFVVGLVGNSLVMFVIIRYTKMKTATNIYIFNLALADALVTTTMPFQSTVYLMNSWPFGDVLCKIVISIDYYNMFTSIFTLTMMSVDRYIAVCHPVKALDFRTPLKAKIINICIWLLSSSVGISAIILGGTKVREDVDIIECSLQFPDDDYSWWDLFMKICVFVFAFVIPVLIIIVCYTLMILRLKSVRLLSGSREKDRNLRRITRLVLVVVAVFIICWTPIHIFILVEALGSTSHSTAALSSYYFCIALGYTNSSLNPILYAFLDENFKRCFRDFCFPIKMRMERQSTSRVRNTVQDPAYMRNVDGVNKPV

[5] = target: delta-type opioid receptor (Rattus norvegicus, UniProt P33533); experiment: inhibition of specific [^3 H] DADLE binding to rat forebrain membranes
Chain of delta-type opioid receptor (P33533 whole entry): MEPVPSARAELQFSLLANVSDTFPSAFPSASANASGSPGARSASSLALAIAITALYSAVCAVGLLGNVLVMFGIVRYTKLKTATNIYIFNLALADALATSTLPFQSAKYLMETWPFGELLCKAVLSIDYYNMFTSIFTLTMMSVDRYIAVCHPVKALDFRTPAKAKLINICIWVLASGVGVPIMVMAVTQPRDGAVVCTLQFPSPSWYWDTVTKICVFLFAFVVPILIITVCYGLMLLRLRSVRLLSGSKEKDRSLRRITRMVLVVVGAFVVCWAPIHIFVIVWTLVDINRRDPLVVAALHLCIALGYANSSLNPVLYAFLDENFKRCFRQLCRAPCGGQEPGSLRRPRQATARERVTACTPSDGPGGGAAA

[6] = S.C., dose tested (mg/kg): Naltrexone 0.5, Nalmefene 1.0, XI 10.0, XII 2.5, XIII 0.5, XIV 5.0

Oc1ccc2c3c1O[C@H]1C(=NOc4ccccc4)CC[C@@]4(O)[C@@H](C2)N(CC2CC2)CC[C@]314 [Example XII, 6-Phenyloximino-17-cyclopropylmethyl-4,5 α-epoxy-3, 14-dihydroxymorphinan]
antagonism of OMZ-induced analgesia, PO ([1]; PO, 42.64 μmol/kg, 0.5 hours): 50% | ED50 ([1]; Rattus norvegicus, sc, Table 8, S.C., read-out: ED 50, oxymorphonazine antagonism): 0.34 mg/kg | ED100 ([1]; Rattus norvegicus, sc, Table 8, S.C., read-out: ED 100, oxymorphonazine antagonism): 3.1 mg/kg | Percent Antagonism at 1 Hr [1, 6]: 90% | Percent Antagonism at 1.5 Hr [1, 6]: 92% | Percent Antagonism at 2 Hr [1, 6]: 91% | Percent Antagonism at 3 Hr [1, 6]: 77% | Percent Antagonism at 4 Hr [1, 6]: 91% | Percent Antagonism at 6 Hr [1, 6]: 92% | Percent Antagonism at 8 Hr [1, 6]: 80% | conditioned taste aversion (milk intake, preference ratio) [2]: totally ineffective in producing a conditioned taste aversion | conditioned taste aversion (milk intake, preference ratio) ([2]; listed as Compound XII): inability of various doses | general malaise ([2]; doses up to 23.09 μmol/kg): does not appear to cause any general malaise at doses up to 23.09 μmol/kg | Food Intake in Grams ([3]; S.C. 1.15 μmol/kg): 33.3 ± 1.6 Grams | Food Intake in Grams ([3]; S.C. 2.31 μmol/kg): 31.0 ± 2.0 Grams | Food Intake in Grams ([3]; S.C. 11.55 μmol/kg): 41.7 ± 7.4 Grams | Food Intake in Grams ([3]; S.C. 23.09 μmol/kg): 37.6 ± 5.6 Grams | Cumulative Food Intake in Grams ([3]; S.C. 11.55 μmol/kg, 0-1 Hr): 2.0 ± 1.0 Grams | Cumulative Food Intake in Grams ([3]; S.C. 11.55 μmol/kg, 0-2 Hr): 2.0 ± 1.0 Grams | Cumulative Food Intake in Grams ([3]; S.C. 11.55 μmol/kg, 0-4 Hr): 2.8 ± 0.9 Grams | Cumulative Food Intake in Grams ([3]; S.C. 11.55 μmol/kg, 0-6 Hr): 3.6 ± 1.3 Grams | Cumulative Food Intake in Grams ([3]; S.C. 23.09 μmol/kg, 0-1 Hr): 2.0 ± 0.7 Grams | Cumulative Food Intake in Grams ([3]; S.C. 23.09 μmol/kg, 0-2 Hr): 2.4 ± 0.8 Grams | Cumulative Food Intake in Grams ([3]; S.C. 23.09 μmol/kg, 0-4 Hr): 3.6 ± 1.5 Grams | Cumulative Food Intake in Grams ([3]; S.C. 23.09 μmol/kg, 0-6 Hr): 3.6 ± 1.5 Grams | Cumulative Food Intake in Grams ([3]; S.C. 46.19 μmol/kg, 0-1 Hr): 2.8 ± 0.6 Grams | Cumulative Food Intake in Grams ([3]; S.C. 46.19 μmol/kg, 0-2 Hr): 2.8 ± 0.6 Grams | Cumulative Food Intake in Grams ([3]; S.C. 46.19 μmol/kg, 0-4 Hr): 3.2 ± 0.6 Grams | Cumulative Food Intake in Grams ([3]; S.C. 46.19 μmol/kg, 0-6 Hr): 3.6 ± 0.8 Grams | Cumulative Food Intake in Grams ([3]; S.C. 92.38 μmol/kg, 0-1 Hr): 3.2 ± 0.6 Grams | Cumulative Food Intake in Grams ([3]; S.C. 92.38 μmol/kg, 0-2 Hr): 3.2 ± 0.6 Grams | Cumulative Food Intake in Grams ([3]; S.C. 92.38 μmol/kg, 0-4 Hr): 4.0 ± 0.7 Grams | Cumulative Food Intake in Grams ([3]; S.C. 92.38 μmol/kg, 0-6 Hr): 4.8 ± 1.1 Grams | Ki [4]: 3.47 nM | Ki ([5]; read-out: (Ki) nM, δ receptor (Rat Forebrain), Table 6, [^3 H] DADLE, mean of three experiments): 0.58 nM | Ki ([5]; read-out: Ki, inhibition of specific [^3 H] DADLE binding, Tables 1 and 2, rat brain membranes, MEAN±S.E.M.): 1.7 ± 0.51 nM

Reference: patent US4889860A (Nova Pharmaceutical Corporation, priority 1987, dated 1989)
